How the values were obtained:
[1] = tested on: ENR+CD organoids (ISC to Paneth cell differentiation); experiment: Primary screen: basal (non-stimulated) lysozyme secretion LYZ.NS, 2.5-D 384-well ENR+CD organoid differentiation; assay type: cell-based, mouse; details: primary screen; for Z.LYZ.NS: standard z score
Text: (§1) High-throughput screening.

[2] = tested on: ENR+CD organoids (ISC to Paneth cell differentiation); experiment: Primary screen: CCh-stimulated lysozyme secretion LYZ.S, 2.5-D 384-well ENR+CD organoid differentiation; assay type: cell-based, mouse; details: primary screen
Text: as §1

ENR+CD organoids = experiment: Primary screen: ATP (CellTiter-Glo 3D, CTG) cell number/viability, 2.5-D 384-well ENR+CD organoids; details: for Dose.FC.CTG (log2 fold change) / Z.CTG (standard z score) / Dose.FC.CTG / Z.CTG: primary screen; for Z.CTG: standard z score;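 for all read-outs here: compounds given at plating and again on day 3 over a 6-day differentiation from ENR+CV stem-cell-enriched precursors, ATP measured on day 6, plate median as control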
[3] = dose 0.08 uM, FC relative to plate median
[4] = dose 0.40 uM, FC relative to plate median
[5] = dose 2.00 uM, FC relative to plate median
[6] = dose 10.00 uM, FC relative to plate median

| SMILES | Dose.FC.LYZ.NS (log2 fold change) ([1]; dose 0.08 uM) | Z.LYZ.NS (standard z score) ([1]; dose 0.08 uM) | Dose.FC.LYZ.NS (log2 fold change) ([1]; dose 0.40 uM) | Z.LYZ.NS (standard z score) ([1]; dose 0.40 uM) | Dose.FC.LYZ.NS (log2 fold change) ([1]; dose 2.00 uM) | Z.LYZ.NS (standard z score) ([1]; dose 2.00 uM) | Dose.FC.LYZ.NS (log2 fold change) ([1]; dose 10.00 uM) | Z.LYZ.NS (standard z score) ([1]; dose 10.00 uM) | Dose.FC.LYZ.S (log2 fold change) ([2]; dose 0.08 uM) | Dose.FC.LYZ.S (log2 fold change) ([2]; dose 0.40 uM) | Dose.FC.LYZ.S (log2 fold change) ([2]; dose 2.00 uM) | Dose.FC.LYZ.S (log2 fold change) ([2]; dose 10.00 uM) | Dose.FC.CTG (log2 fold change) (ENR+CD organoids; dose 0.08 uM) | Dose.FC.CTG (log2 fold change) (ENR+CD organoids; dose 0.40 uM) | Dose.FC.CTG (log2 fold change) (ENR+CD organoids; dose 2.00 uM) | Dose.FC.CTG (log2 fold change) (ENR+CD organoids; dose 10.00 uM) | Z.CTG (standard z score) (ENR+CD organoids; dose 0.08 uM) | Z.CTG (standard z score) (ENR+CD organoids; dose 0.40 uM) | Z.CTG (standard z score) (ENR+CD organoids; dose 2.00 uM) | Z.CTG (standard z score) (ENR+CD organoids; dose 10.00 uM) | other results |
| --- | --- | --- | --- | --- | --- | --- | --- | --- | --- | --- | --- | --- | --- | --- | --- | --- | --- | --- | --- | --- | --- |
| Cc1cc(Nc2ncc(Cl)c(Nc3ccccc3S(=O)(=O)C(C)C)n2)c(OC(C)C)cc1C1CCNCC1 [LDK378] | 0.061 | 0.534 | −0.053 | −0.465 | −0.195 | −1.702 | −0.338 | −2.939 | 0.118 | −0.047 | −0.281 | −0.487 | 0.135 | 0.004 | −0.364 | −1.292 |  |  |  |  |  |
| Cl.O=C(O)Cc1cccc(OCCCN(Cc2cccc(C(F)(F)F)c2Cl)CC(c2ccccc2)c2ccccc2)c1 [GW3965 HCl] | 0.059 | 0.516 | 0.002 | 0.013 | 0.077 | 0.673 | −0.009 | −0.080 | 0.091 | 0.074 | 0.179 | −0.047 | 0.138 | 0.201 | 0.229 | −0.078 | 0.330 | 0.481 | 0.546 | −0.186 |  |
| CC(C)C[C@@H](C(=O)N[C@H](C(=O)OC1CCCC1)c1ccccc1)[C@H](O)C(=O)NO [Tosedostat (CHR2797)] |  | −0.022 |  | −0.925 |  | −0.432 |  | −1.499 |  |  |  |  |  |  |  |  | −0.232 | 0.123 | −0.480 | −1.117 | Dose.FC.LYZ.NS ([1]; dose 0.08 uM): −0.002 log2 fold change; Dose.FC.LYZ.NS ([1]; dose 0.40 uM): −0.106 log2 fold change; Dose.FC.LYZ.NS ([1]; dose 2.00 uM): −0.050 log2 fold change; Dose.FC.LYZ.NS ([1]; dose 10.00 uM): −0.172 log2 fold change; Dose.FC.LYZ.S ([2]; dose 0.08 uM): −0.027 log2 fold change; Dose.FC.LYZ.S ([2]; dose 0.40 uM): −0.134 log2 fold change; Dose.FC.LYZ.S ([2]; dose 2.00 uM): −0.128 log2 fold change; Dose.FC.LYZ.S ([2]; dose 10.00 uM): −0.276 log2 fold change; SSMD.CTG (ENR+CD organoids; Table 5A primary screen, strictly standardized mean difference, four lines per treatment = four doses, dose not given): −0.311; Dose.FC.CTG (ENR+CD organoids; dose 0.08 uM): −0.097 log2 fold change; Dose.FC.CTG (ENR+CD organoids; dose 0.40 uM): 0.051 log2 fold change; Dose.FC.CTG (ENR+CD organoids; dose 2.00 uM): −0.201 log2 fold change; Dose.FC.CTG (ENR+CD organoids; dose 10.00 uM): −0.468 log2 fold change |
| O=C(Nc1cc(C(F)(F)F)ccc1N1CCCCC1)c1ccncc1 [SRPIN340] |  |  |  |  |  |  |  |  |  |  |  |  |  |  |  |  |  |  |  |  | Dose.FC.LYZ.NS [1, 3]: 0.115 log2 fold change; Z.LYZ.NS ([1]; dose 0.08 uM): 1.004; Dose.FC.LYZ.NS [1, 4]: 0.040 log2 fold change; Z.LYZ.NS ([1]; dose 0.40 uM): 0.348; Dose.FC.LYZ.NS [1, 5]: 0.097 log2 fold change; Z.LYZ.NS ([1]; dose 2.00 uM): 0.846; Dose.FC.LYZ.NS [1, 6]: 0.022 log2 fold change; Z.LYZ.NS ([1]; dose 10.00 uM): 0.192; Dose.FC.LYZ.S [2, 3]: 0.112 log2 fold change; Dose.FC.LYZ.S [2, 4]: 0.098 log2 fold change; Dose.FC.LYZ.S [2, 5]: 0.100 log2 fold change; Dose.FC.LYZ.S [2, 6]: 0.078 log2 fold change; Dose.FC.CTG (ENR+CD organoids; [3]): 0.421 log2 fold change; Z.CTG (ENR+CD organoids; dose 0.08 uM): 1.005; Dose.FC.CTG (ENR+CD organoids; [4]): 0.445 log2 fold change; Z.CTG (ENR+CD organoids; dose 0.40 uM): 1.063; Dose.FC.CTG (ENR+CD organoids; [5]): 0.453 log2 fold change; Z.CTG (ENR+CD organoids; dose 2.00 uM): 1.083; Dose.FC.CTG (ENR+CD organoids; [6]): 0.467 log2 fold change; Z.CTG (ENR+CD organoids; dose 10.00 uM): 1.115 |
| C/C(=C\C(=O)Nc1ccccc1C(=O)O)c1ccc2ccccc2c1 [BIBR 1532] |  | 0.282 |  | 0.377 |  | −0.117 |  | −0.536 |  |  |  |  |  |  |  |  | 0.533 | −0.113 | −0.080 | 0.072 | Dose.FC.LYZ.NS ([1]; dose 0.08 uM): 0.032 log2 fold change; Dose.FC.LYZ.NS ([1]; dose 0.40 uM): 0.043 log2 fold change; Dose.FC.LYZ.NS ([1]; dose 2.00 uM): −0.013 log2 fold change; Dose.FC.LYZ.NS ([1]; dose 10.00 uM): −0.062 log2 fold change; Dose.FC.LYZ.S ([2]; dose 0.08 uM): 0.028 log2 fold change; Dose.FC.LYZ.S ([2]; dose 0.40 uM): 0.107 log2 fold change; Dose.FC.LYZ.S ([2]; dose 2.00 uM): −0.081 log2 fold change; Dose.FC.LYZ.S ([2]; dose 10.00 uM): −0.114 log2 fold change; Dose.FC.CTG (ENR+CD organoids; dose 0.08 uM): 0.223 log2 fold change; Dose.FC.CTG (ENR+CD organoids; dose 0.40 uM): −0.047 log2 fold change; Dose.FC.CTG (ENR+CD organoids; dose 2.00 uM): −0.034 log2 fold change; Dose.FC.CTG (ENR+CD organoids; dose 10.00 uM): 0.030 log2 fold change |
| NC(=O)c1cccc(-c2cc(Nc3ccc(OC(F)(F)F)cc3)ncn2)c1 [GNF-2] | 0.159 | 1.386 | −0.024 | −0.206 | 0.012 | 0.102 | −0.033 | −0.286 | 0.121 | 0.001 | 0.046 | −0.015 | 0.157 | 0.090 | 0.074 | 0.100 | 0.376 | 0.214 | 0.176 | 0.240 |  |

From patent publication US20220323406A1, “METHODS AND COMPOSITIONS FOR DIFFERENTIATING STEM CELLS” (Massachusetts Institute of Technology, priority 2019, published 2022)
